# Assay results: patent US8815592B2, “Methods and compositions related to dopaminergic neuronal cells” (Research Development Foundation, priority 2010, dated 2014)
# Where a name gives a salt, the structure may show the parent alone.
# Tests used:
# [1] = biological target: T1, dopaminergic transporter DAT (Mus musculus, UniProt Q61327); assay: [3H] Win 35,428 binding on DAT receptor of ES-derived dopaminergic neurons, with and without GBR 12909; conditions: cells incubated with 10 μm GBR 12909 hydrochloride; 5 nM ligand; 6 well plates
# T1 construct: After 16 days of differentiations, cells were incubated with [^3H]; Win35, 428 for 1 hour; endogenous in cells; host or cells: dopaminergic neurons differentiated from mouse embryonic stem cells (CGR8 line)
# Experimental: Cells were incubated on binding buffer containing 5 nM of the ligand at different time (30 to 60 minutes), with and without 10 μm of GBR 12909 hydrochloride. […] Radioactivity measured by liquid scintillation counter (WALLAC).
# Win 35,428 binding to DAT receptor and DA-neurons in 96-well plate, cells were plated at the density of 60 cells/well.
# After 16 days of differentiations, cells were incubated with [^3H] Win35, 428 for 1 hour and then washed by binding buffer for 1 minute, following by direct counting using liquid scintillation counter (WALLAC).
# In detail, the binding assay was performed at 4° C. in phosphate-buffered saline (PBS) (Invitrogen/Gibco) containing 0.32 M sucrose with Ca^2+ and Mg^2+. Cells in each well were washed one time with 0.5 ml of phosphatebuffered. Then incubated at various time (30 to 60 min) with various amounts (5 to 10 nM) of [^3H] Win 35,428. The non specific binding was determined in the presence or not of 10 μM of GBR-12909 hydrochloride. The incubation was stopped by rinsing the cells three times with ice-cold buffer to eliminate non-linked [^3H] Win 35,428 and removal of cells. Cells were detached by a rake and transferred into a 96 well plate. Radioactivity was measured by a liquid scintillation counter (WALLAC).
# [2] = tested on: Engineered neural tissues (ENTs); assay: Neurotoxicology testing platform, electrical activity of engineered neural tissues; format: cell-based, mouse; conditions: ENTs (FIG. 13)
# Experimental: Engineered neural tissues (ENTs) (a similar scheme could be applied to dopaminergic neurons provided according to certain aspects of the present invention) can be used for establishment of a neurotoxicology testing platform (FIG. 12). […] Mouse ENTs differentiated for 21 days were exposed to putative neurotoxic for 24 hours and spontaneous electrical activity was measured for the neurotoxicity testing (FIG. 14). Electrophysiological characterizations of ENTs include characterization of spontaneous activity such as spike frequency, spike amplitude, burst frequency (number of bursts per second), or number of spikes per burst, or characterization of evoked filed potentials such as amplitude of responses, paired-pulse inhibition, or input/output curve. The electrophysiological characterization of ENTs can be carried out by a multi-electrode array (FIG. 16).
# T1 sequence (Q61327 whole entry): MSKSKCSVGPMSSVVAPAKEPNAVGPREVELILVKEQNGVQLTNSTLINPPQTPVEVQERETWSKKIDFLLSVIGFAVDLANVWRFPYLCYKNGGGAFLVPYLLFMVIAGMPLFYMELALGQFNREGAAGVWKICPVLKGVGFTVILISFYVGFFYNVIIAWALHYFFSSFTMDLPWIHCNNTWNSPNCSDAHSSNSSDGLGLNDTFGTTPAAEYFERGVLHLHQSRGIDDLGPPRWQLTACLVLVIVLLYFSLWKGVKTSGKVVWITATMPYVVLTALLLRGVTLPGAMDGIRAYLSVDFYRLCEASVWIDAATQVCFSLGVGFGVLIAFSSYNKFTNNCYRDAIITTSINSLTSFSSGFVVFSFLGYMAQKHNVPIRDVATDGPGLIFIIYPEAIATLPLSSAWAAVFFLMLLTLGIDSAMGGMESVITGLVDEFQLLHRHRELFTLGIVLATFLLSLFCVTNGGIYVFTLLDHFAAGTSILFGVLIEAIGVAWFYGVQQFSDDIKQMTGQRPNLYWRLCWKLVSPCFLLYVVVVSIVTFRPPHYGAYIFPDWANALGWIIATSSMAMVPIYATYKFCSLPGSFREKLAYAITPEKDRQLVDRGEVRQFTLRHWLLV
Compound,"non-specific binding as share of the total binding of [3H] Win 35,428 [1] [%]",epileptogenic activity [2]
Fc1ccc(C(OCCN2CCN(CCCc3ccccc3)CC2)c2ccc(F)cc2)cc1 [GBR 12909 hydrochloride],50,–
COc1cc2c(c(OC)c1OC)-c1ccc(OC)c(=O)cc1[C@@H](NC(C)=O)CC2 [colchicine],–,demonstrated
